# Reference: EP4000613A1, “PHARMACEUTICAL COMBINATIONS COMPRISING A PEPTIDE CXCR4 INHIBITOR AND A TAXANE FOR TREATING CANCER” (Polyphor AG, priority 2020, dated 2022)
# Legend:
# [1] = system: human CXCR4 receptor; assay: In vitro receptor binding studies (CXCR4)
# Text: (§1) In a particular preferred embodiment the peptidic CXCR4 inhibitor is cyclo(-Tyr-His-Ala-Cys-Ser-Ala-^DPro-Dab-Arg-Tyr-Cys-Tyr-Gln-Lys-^DPro-Pro-) having a disulfide bond between Cys^4 and Cys^11, or pharmaceutically acceptable sals thereof. Cyclo(-Tyr-His-Ala-Cys-Ser-Ala-^DPro-Dab-Arg-Tyr-Cys-Tyr-Gln-Lys-^DPro-Pro-) having a disulfide bond between Cys^4 and Cys^11 is also referred as POL6326 herein or balixafortide. POL6326 is a cyclic synthetic peptide consisting of 16 amino acids and an antagonist of the highly conserved chemokine receptor CXCR4.
# [2] = system: other potential target receptors; assay: In vitro receptor binding studies (other receptors)
# Text: as §1
# [3] = system: breast cancer PDX Ma15169; assay: Tumor growth of breast cancer PDX Ma15169 in humanized NOG-EXL mice; assay type: in vivo; details: for rating according to RECIST criteria: based on T/C at last day of the study (day 183); for T/C value: last day of the study (day 183), tumor volume treated-to-control
# Procedure: The study was designed to determine the response of the breast cancer PDX Ma15169 to treatment with Paclitaxel single agent, Balixafortide single agent and the combination of both in humanized NOG-EXL mice. Humanized NOG-EXL mice bearing the breast cancer PDX Ma15169 were treated with Paclitaxel and Balixafortide according to Table 1. Ma15169 is a patient derived xenograft (PDX) that was from a patient with an invasive ductal carcinoma (ypT1a ypNla R0 G3 L1 V1). The patient tumour was ER/PR as well as Her-2 negative. The tumour material was expanded in 9 donor mice (NOG, Taconic; https://www.taconic.com/mouse-model/ciea-nog-mouse) and fragments of about 10mm3 were each implanted subcutaneously into the flank of 50 humanized NOG-EXL mice; at this time, the passage number of Ma15169 was #4. Table 1: Course of events during the study
# Female NOG-EXL mice with an age of about 4 weeks were used for the constitution of human immune cells. 24 hours before CD34+ cell inoculation mice were irradiated with 1Gy. Human CD34+ cells were isolated from fresh cord blood within the laboratories of EPO (Experimental Pharmacology & Oncology Berlin-Buch GmbH, Berlin-Buch, Germany) and preserved in liquid nitrogen until use. For the study MV16883 a pool of 5 different donors (CB AG 101, CB AG 97, CB KR 104, CB AG 106, CB AG 107) prepared. After thawing the cells were washed with PBS, pooled and washed again followed by Trypan blue staining and cell counting using Neubauer chamber. A total of 5x10^4 vital cells were resuspended in 200µl PBS and injected intravenously into the tail vain of all mice.
# Determination of human immune cells by FACS was performed at days 46, 84 and 115 after cell inoculation (leucocytes CD45+, B cells CD19+, T cells CD3+, NK cells CD56+/CD16+ and monocytes CD14+; Human Immunophenotyping 8-color-Kit (Miltenyi)). The mice were weighed weekly and monitored for general health two times weekly.
# The PDX Ma15169 is maintained by EPO (Experimental Pharmacology & Oncology Berlin-Buch GmbH, Berlin-Buch, Germany) as in vivo passage; the passage number for this study was #4. Donor mice (female NOG; Taconic) with tumors of about 1cm3 were used for the preparation of this study MV16883.
# After removal of the tumor tissue from donor mice, the tumors were cut into fragments (2-3 mm diameter - approximately 10mm3) and placed in cooled RPMI 1640 culture medium until s.c. implantation within 30 minutes. The humanized NOG-EXL mice were anaesthetized with Etomidate and received a small incision in the skin of the left flank. The tumor fragments (one fragment/mouse) were implanted with tweezers and the incision closed with a suture clip (#310417, Covetrus GmbH). The clips were removed after seven days and mice controlled two times weekly by means of palpation. The implantation of tumor fragments was performed 122 days after the inoculation of CD34+ cells.
# Tumor bearing mice were stratified into 4 treatment groups according to their tumor volumes at day 154 post CD34+ cell inoculation (32 days after tumor implantation). […] During stratification the animals were individually marked by earmarks.
# Paclitaxel (Taxomedac™ comprising paclictaxel, citric acid, ethanol and PEG (30-50) castor oil) was given i.v. at a dose of 10 mg/kg twice weekly. Balixafortide was given s.c. at a dose of 20 mg/kg once daily for the first 5 days and twice daily for 5 days followed by treatment breaks of 2 days until the end of treatment period (Fig. 1). Total treatment duration was 29 days. […]
Structure (SMILES),affinity for the human CXCR4 receptor [1],binding to other potential target receptors [2],rating according to RECIST criteria [3],"optimum T/C value ([3]; day 168, Balixafortide 20 mg/kg s.c., p > 0.05) [%]",T/C value ([3]; Balixafortide 20 mg/kg s.c.) [%],"T/C value ([3]; Paclitaxel 10 mg/kg i.v. twice weekly, Balixafortide 20 mg/kg s.c.) [%]"
"C[C@@H]1NC(=O)[C@H](Cc2c[nH]cn2)NC(=O)[C@H](Cc2ccc(O)cc2)NC(=O)[C@@H]2CCCN2C(=O)[C@H]2CCCN2C(=O)[C@H](CCCCN)NC(=O)[C@H](CCC(N)=O)NC(=O)[C@H](Cc2ccc(O)cc2)NC(=O)[C@@H]2CSSC[C@H](NC1=O)C(=O)N[C@@H](CO)C(=O)N[C@@H](C)C(=O)N1CCC[C@@H]1C(=O)N[C@@H](CCN)C(=O)N[C@@H](CCCNC(=N)N)C(=O)N[C@@H](Cc1ccc(O)cc1)C(=O)N2 [Balixafortide, cyclo(-Tyr-His-Ala-Cys-Ser-Ala-^DPro-Dab-Arg-Tyr-Cys-Tyr-Gln-Lys-^DPro-Pro-) having a disulfide bond between Cys^4 and Cys^11]",significant affinity,general lack of significant binding,progressive disease,79,107,–
CC(=O)O[C@H]1C(=O)[C@@]2(C)[C@H]([C@H](OC(=O)c3ccccc3)[C@]3(O)C[C@H](OC(=O)[C@H](O)[C@@H](NC(=O)c4ccccc4)c4ccccc4)C(C)=C1C3(C)C)[C@]1(OC(C)=O)CO[C@@H]1C[C@@H]2O [Paclitaxel],–,–,stable disease,–,–,42
